# Measured values: article PMC7996098, “High-Level Extracellular Expression of a New β-N-Acetylglucosaminidase in Escherichia coli for Producing GlcNAc” (Frontiers in Microbiology, 2021)
# Target: T1, BlNagZ (Bacillus licheniformis, UniProt Q65P58)
# T1 construct: gene ybbD; pET26b, PelB signal peptide (excised on secretion) fused to ORF amplified from its start codon; His-tag purified; E. coli BL21(DE3) supernatant
# Experiment: p-nitrophenol release, absorbance […] nm
# Assay type: biochemical
# Conditions: substrate of the Km not given, taken from the standard assay; pH 5.5, 60 °C (standard assay), 50 mM phosphate; read-out: Km (μ mol/L)
# T1 sequence (Q65P58 entry or part of it): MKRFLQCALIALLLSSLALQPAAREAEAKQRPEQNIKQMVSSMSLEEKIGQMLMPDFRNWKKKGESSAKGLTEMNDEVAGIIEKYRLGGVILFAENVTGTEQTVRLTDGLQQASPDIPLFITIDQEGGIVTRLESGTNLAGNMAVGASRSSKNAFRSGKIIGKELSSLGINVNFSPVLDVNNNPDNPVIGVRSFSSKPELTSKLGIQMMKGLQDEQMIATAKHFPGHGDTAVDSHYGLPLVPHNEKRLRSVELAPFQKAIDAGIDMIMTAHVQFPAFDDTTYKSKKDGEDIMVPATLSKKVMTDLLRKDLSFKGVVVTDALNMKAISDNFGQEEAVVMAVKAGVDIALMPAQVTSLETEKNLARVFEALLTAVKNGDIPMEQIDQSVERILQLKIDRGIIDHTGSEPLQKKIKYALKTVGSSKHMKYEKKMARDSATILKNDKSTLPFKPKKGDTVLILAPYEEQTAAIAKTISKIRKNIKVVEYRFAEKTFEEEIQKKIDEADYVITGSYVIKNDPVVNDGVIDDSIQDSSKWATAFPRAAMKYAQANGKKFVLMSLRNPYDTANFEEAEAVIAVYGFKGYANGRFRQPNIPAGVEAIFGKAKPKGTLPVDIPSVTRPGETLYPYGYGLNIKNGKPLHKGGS
compound,measurement,value
CC(=O)N[C@H]1[C@H](Oc2ccc([N+](=O)[O-])cc2)O[C@H](CO)[C@@H](O)[C@@H]1O [pNP-β-D-GlcNAc],Km,0.000932 mol/L
